Columns and labels:
[1] = system: p53 pathway proteins in SW480 cells; test: Western blot of p53, p53 targets, apoptosis and autophagy markers; assay type: cell-based, human; details: for Noxa protein expression: SW80 cells, 24 hours
Description: (§1) After treatment, cells were harvested by trypsinization, washed with PBS, and lysed with RIPA buffer (Sigma-Aldrich) for 30 minutes to 1 hour at 4° C. Protein lysates were spun down and supernatant was collected. Protein quantification was performed using a Pierce™ BCA Protein Assay Kit (Thermo Fisher Scientific). 1×NuPAGE® LDS sample buffer (Thermo Fisher Scientific) and 2-Mercaptoethanol as the reducing agent (Sigma-Aldrich) were added to protein lysates, followed by boiling for 15 minutes at 95° C. Equal total protein amounts samples were loaded into NuPAGE™ Novex™ 4-12% Bis-Tris Protein Gels (1.5 mm, Thermo Fisher Scientific) and gel eletrophoresis was performed with NuPAGE™ MES SDS Running Buffer. Proteins were transferred onto an Immobilon-P membrane (PVDF, EMD Millipore) using a Bio-Rad system with a 10% Tris-Glycine and 10% methanol transfer buffer diluted in distilled and deionized water. After transfer, membranes were blocked with 10% milk in TBST solution and then incubated overnight with primary antibody, washed with TBST and incubated with secondary antibody for 1 hour. Incubations were performed in 5% milk in TBST solution. Signal was detected by using a chemiluminescent detection kit, followed by autoradiography. The following antibodies were used: p53 (DO-1, 1:1000, Santa Cruz), p73 (1:1000, Bethyl Laboratories), p21 and NOXA (1:250, EMD Millipore), DR5, FADD, cleaved caspase 3, cleaved caspase 8, cleaved PARP, and LC3B (1:1000, Cell Signaling), and β-actin (1:10000, Sigma).
(§2) Proteins were isolated using NP40 Lysis Buffer (20 mmol/L Tris-HCl (pH 7.4), 150 mmol/L NaCl, 5 mmol/L EDTA, 50 mmol/L NaF, 1 mmol/L glycerophosphate, 5 mmol/L Na4P2O7, 0.5% NP40, and complete protease inhibitor cocktail (Roche)) and electrophoresed through 4-12% SDS-PAGE followed by semi-dry transfer to PVDF membranes. The PVDF membranes were incubated with different antibodies including p21 (OP64-100UG, EMD Millipore (world wide web at emdmillipore.com/US/en/product/Antip21WAF1-(Ab-1)-Mouse-mAb-(EA10), EMD_BIO-OP64)), PUMA (12450S, Cell Signaling Technology, world wide web at cellsignal.com/products/primary-antibodies/puma-d30c10-rabbit-mab/12450), DR5 (3696S, Cell Signaling Technology, world wide web at cellsignal.com/products/primary-antibodies/dr5-antibody/3696?N=4294956287&Ntt=3696s&fromPage=plp& requestid=541668), p53(sc-126, Santa Cruz, world wide web at scbt.com/scbt/fr/product/p53-antibody-do-1), and RAN (610341, BD Transduction Laboratories, world wide web at bdbiosciences.com/us/reagents/research/antibodies-buffers/cell-biologyreagents/cell-biology-antibodies/purified-mouse-anti-ran-20ran/p/610341) in blocking buffer at 4° C. overnight. Bound antibody will be detected using IRDye secondary antibodies (LI-COR Biosciences,) in Odyssey blocking buffer for 1 hour then imaged using the ODYSSEY infrared imaging system.

[2] = system: p53 pathway proteins in DLD-1 cells; test: Western blot of p53 targets and LC3B; assay type: cell-based, human; details: DLD-1, 24 hours
Description: as §1, §2

cell cycle G2 checkpoint = test: propidium iodide staining cell cycle analysis; assay type: cell-based; details: 24 hour treatment, alone and with etoposide
Description: Referring to FIG. 22 (panels A-F), propidium iodide staining cell cycle analysis for 24 hour treatment with DMSO (panel A), CB002 (panel B), CB002 and etoposide (panel C), etoposide (panel D), caffeine (panel E), and caffeine and etoposixe (panel F). […] The deregulation of the G2 checkpoint as a mechanism by caffeine prevents […] tumor cells that are treated with DNA damaging drugs, such as etoposide, from arresting to have time to repair, and thus sensitizes cancer cells to cell death.

SW480 cells [3] = test: CellTiter-Glo luminescent cell viability assay; assay type: cell-based, human
Description: Cells were seeded in 96-well plates at a density of 5×10^3 cells per well. 20 μL of CellTiter-Glo® Reagent was added directly to the wells, following the manufacturer's protocol, and bioluminescence signal was determined using an IVIS imaging system.
Cell lines at a concentration of 4×10^3 cells/well were seeded out on an opaque 96-well plate and treated with CB002 and Analog 11 in ranging doses starting from 200 μmol/L with DMSO controls. At 72 hours after treatment, cells were mixed with 30 μL Cell Titer-Glo reagent and after ten minutes of room temperature incubation were imaged using IVIS imaging system (Xenogen).
To begin establishing the potential of CB002 as a candidate therapeutic agent, its therapeutic index was determined by treating cancer (DLD-1, SW480, and RXF393) and normal (WI38 and MRC5) cell lines with concentrations of CB002 ranging from 0-500 μM for a period of 72 hours and assessing cell viability by the CellTiter-Glo® luminescence assay (see, FIG. 2). CB002 has a significant therapeutic index among the cells tested.

SW480 cells [4] = test: apoptosis assay, sub-G1 analysis (propidium iodide, flow cytometry); assay type: cell-based, human; details: 25 μM, 48 hours
Description: (§3) Apoptotic cells were quantified by sub-G1 analysis. Cells were seeded at a density of 2.5×10^5 to 5×10^5 in a 6-well plate and treated for 48-72 hours. After treatment, adherent cells were trypsinized and collected along with floating cells, washed with PBS and fixed in 70% ethanol. Cells were then incubated in a Phosphate-citric acid buffer (0.2 M Na2HPO4+0.1 M Citric Acid, pH 7.8) at room temperature for 5 minutes, spun down and resuspended for staining with 50 μg/mL propidium iodide (PI) in the presence of 250 μg/mL pancreatic ribonuclease (RNase A). Sub-G1 analyses were performed using an Epics Elite Epics flow cytometer (Coulter-Beckman).
(§4) Cells were seeded out at 1×10^6 cells/well on six well plates and treated with CB002 and Analog 11 at ranging doses with DMSO controls. Cells were harvested after 72 hours of treatment, all cells including floating cells were fixed with ethanol and stained with Propidium Iodide and then analyzed using Epics Elite flow cytometer to measure the DNA content of the stained cells.

WI38 normal cells = test: as above; assay type: cell-based, human; details: 25 μM, 48 hours
Description: as §3, §4

[5] = system: Noxa in 8226 bortezomib resistant multiple myeloma cell line; test: Western blot of Noxa; assay type: cell-based; details: 25 μM Analog 4, 100 μM Analog 11
Description: Referring to FIG. 20 (panel C), 1×10^6 cells/well were seeded in a 12-well plate. 8226 parental and resistant multiple myeloma cell lines were treated with 100 μM CB002, 25 μM Analog 4, or 100 μM Analog 11.

8226 cells = test: combination treatment with bortezomib, combination index (CompuSyn); assay type: cell-based; details: 48 hours, 0-100 nM Bortezomib with 0-200 μM analog
Description: Referring to FIG. 21 (panels A and B), 3×10^4 cells/well of 8226 cells were seeded in a 96-well plate. The cells were treated for 48 hours with a combination of 0-100 nM Bortezomib with 0-200 μM Analog 4 (see, panel A) and 0-100 nM Bortezomib with 0-200 μM Analog 11 (see, FIG. 21, panel B). CompuSyn software was used to analyze the combination index of both drugs.

[6] = system: MM1S Bortezomib resistant cells; test: Cell Titer-Glo cell viability with bortezomib; assay type: cell-based; details: 25 μM Analog 4
Description: Referring to FIG. 21 (panel C), 3×10^4 cells/well of MM1S parental and Bortezomib MM1S resistant cells were seeded in a 96-well plate. Cell viability was determined by the Cell Titer-Glo® Assay.

Q: Which results are given for `Cn1c(=O)c2c(ncn2C)n(C)c1=O` [caffeine, reference compound]?
A: Noxa protein expression [1]: dis not induce Noxa expression; Noxa protein expression [2]: dis not induce Noxa expression; effect on cell cycle G2 checkpoint (cell cycle G2 checkpoint): can deregulate the cell cycle G2 checkpoint

Q: What does the source list for `Cn1c(=O)c2[nH]cnc2n(C)c1=O` [theophylline, reference compound]?
A: Noxa protein expression [1]: dis not induce Noxa expression; Noxa protein expression [2]: dis not induce Noxa expression

Q: How did the “IC50 ranking among CB002 analogs” value (SW480 cells [3]; Cell Titer-Glo, serial dilution) turn out when `Cn1c(=O)c2[nH]c(Nc3cccc(C(F)(F)F)c3)nc2n(C)c1=O` [Analog 4] was run?
A: most potent compound

Q: And the “apoptosis by sub-G1 content” value (SW480 cells [4])?
A: underwent apoptosis

Q: What about the “apoptosis by sub-G1 content” value (WI38 normal cells) of the same compound?
A: not normal human fibroblast WI38 cells

Q: What about the “expression of DR5, Noxa and cleaved Parp” value ([1]; 12 or 25 μM, 16 and 24 hours) of the same compound?
A: increased expression of DR5, Noxa, and cleaved Parp

Q: And the Noxa expression ([1]; 24 hour, 100 μM CB002, 25 NM Analog 4, 100 μM Analog 11)?
A: Induction of Noxa expression

Q: And the Noxa expression [5]?
A: able to induce Noxa expression

Q: And the “synergy with Bortezomib (combination index)” value (8226 cells)?
A: synergyze the most with Bortezomib

Q: And the “sensitization to Bortezomib (cell viability)” value [6]?
A: able to sensitize MM1S resistant cells to Bortezomib treatment

Q: Which Noxa protein expression [1] does the source give for `CC(=O)CCCCn1c(=O)c2c(ncn2C)n(C)c1=O` [pentoxifylline, reference compound] here?
A: dis not induce Noxa expression

Q: What about the Noxa protein expression [2] of the same compound?
A: dis not induce Noxa expression

Q: For `O=c1[nH]cc(F)c(=O)[nH]1` [Analog 5-FU, 5-fluorouracil, reference compound], which “toxicity (cell viability reduction), 5-FU versus CPT-11” value (SW480 cells [3]; 72 hours, ascending doses) is on record?
A: greater toxicity
